# Assay results taken from patent US7723021B2, “Methods for treating lentivirus infections” (The J. David Gladstone Institutes, priority 2003, dated 2010).
# Entries after “also recorded” stand apart in the source; their conditions may differ. Residues, ends and D or L forms follow the SMILES beside them. *: point of attachment. Cbz = O=C(OCc1ccccc1)*
# Test system: Vif-mediated depletion of APOBEC3G-HA in 293T cells
# Assay: Proteasome inhibitor panel in 293T cells transiently transfected with APOBEC3G-HA and Vif, immunoblot
# Format: cell-based
# Conditions: 12.5 μM, 15 hours
# Experimental: 293T cells were transfected with the indicated amounts of expression vector DNA using the calcium phosphate method. Lysis buffers used for immunoblotting were (1) 100-400 mM NaCl, 50 mM Hepes, 0.2% NP40, 0-5 mM EDTA, 0.1 mM PMSF, plus complete protease inhibitor cocktail (Roche)(1 tablet/50 ml buffer) or (2) 50 mM Hepes, pH 7.2, 135 mM NaCl, 1% Triton X-100, 0.5% deoxycholate, 10% glycerol, 1 mM EDTA, 1× protease inhibitor cocktail (Calbiochem). Samples were analyzed using standard SDS-PAGE techniques.
# For the proteasome inhibitor experiments in transiently transfected cells, 293T cells were transiently transfected with 0.1 μg of APOBEC3G-HA DNA, 2 μg of control vector DNA and 2 μg of either pcDNA3.1 Vif DNA vector or an additional 2 μg of control vector DNA. Twenty-four hours after transfection, the cells were treated with the indicated inhibitor and harvested 15 hours later. For the proteasome inhibitor experiments using infected H9 cells, H9 cells were infected by spinoculation as described above. Forty-four hours after infection, the cells were treated for 16 hours with either dimethylsulfoxide (DMSO) (0.1%) or 0.25 μM epoxomicin. All of the inhibitors (ALLN, MG132, epoxomicin, Calpain Inhibitor III, and clasto-Lactacystin-β-Lactone) were purchased from CalBiochem and were dissolved in DMSO.
# To confirm this finding in a different system, a similar experiment was performed using 293T cells transiently transfected with an APOBEC3G-HA expression vector and either a Vif expression vector or a control vector. Twenty-four hours after transfection the cells were treated with a panel of different proteasome inhibitors for a 15-hour period. It was observed that the broadly acting proteasome inhibitors MG132 (12.5 μM) and ALLN (25 μM) as well as the more specific proteasome inhibitor clasto-Lactacystin-β-Lactone ([…], 20 μM) enhanced the levels of APOBEC3G-HA in the presence of Vif when compared to the diluent control sample (0.1% DMSO) (FIG. 8C, lanes 7 through 12).
# FIG. 8A-C. Vif shortens the half-life of APOBEC3G, and proteasome inhibitors partially block the intracellular depletion of APOBEC3G-HA. (A) Pulse-Chase Radiolabeling. HEK 293 cells transiently transfected with APOBEC3G-HA and Vif or control vector DNA were pulse-labeled for 30 min. The initial pulse-labeled (t=0) samples were harvested, and the remaining samples were incubated with chase media for the indicated time points. After immunoprecipitation with anti-HA antibody, the samples were analyzed by SDS-PAGE and the gels were subjected to autoradiography. The relative intensity of the bands were quantified and the Vif (+) and Vif (−) samples were normalized to 1 and graphed (FIG. 8, right side). The T1/2 of APOBEC3G was 1.9 hours in the presence of Vif and 10 hours in the absence of Vif. (B) Proteasome inhibitor studies using infected H9 cells. Mock or HIV-1 wt-infected H9 cells were treated with the broadly active proteasome inhibitor epoxomicin (0.25 μM) or DMSO (0.1%) 44 hours after infection. Sixteen hours following treatment, the cells were harvested; and whole cell lysates were prepared by boiling the cells in Laemmli lysis buffer. Note that Epoxomicin caused an increase in endogenous APOBEC3G levels in the infected sample (compare lane 2 with lane 1). (C) Proteasome inhibitor studies using transiently-transfected 293T cells. Twenty-four hours following transfection of 293T cells with 0.1 μg APOBEC3G and 2 μg Vif or control vector DNA, the cells were treated with the indicated concentration of inhibitor for 15 hours. APOBEC3G-HA levels were elevated in the presence of the proteasome inhibitors MG132, ALLN, and clasto-lactacystin-β-lactone (lanes 8-11), but not in the presence of calpain inhibitor III (lane 12).
compound,measurement,value
CC(C)C[C@@H](C=O)NC(=O)[C@H](CC(C)C)NC(=O)[C@H](CC(C)C)NC(=O)OCc1ccccc1 [MG132] (Cbz-Leu-Leu-Leu-aldehyde),levels of APOBEC3G-HA in the presence of Vif compared to diluent control (0.1% DMSO),enhanced; also recorded: elevated
